Experimental data taken from US20200003756A1, “METHOD FOR OBSERVING SEBACEOUS GLAND” (MANDOM CORPORATION, priority 2017, published 2020).

Test system: sebaceous-gland-structure A
Experiment: Classification of the state of lipid droplets in cells of the outermost layer of the sebaceous gland after suspension culture (Example 1)
Format: cell-based
Parameters: key to State of lipid droplet in cell contained in outermost layer of sebaceous gland FIG. 6(A) / State of lipid droplet in cell contained in outermost layer of sebaceous gland FIG. 6(B) / State of lipid droplet in cell contained in outermost layer of sebaceous gland FIG. 6(C) / State of lipid droplet in cell contained in outermost layer of sebaceous gland FIG. 6(D) / State of lipid droplet in cell contained in outermost layer of sebaceous gland FIG. 6(E) / State of lipid droplet in cell contained in outermost layer of sebaceous gland FIG. 6(F) / State of lipid droplet in cell contained in outermost layer of sebaceous gland FIG. 6(G): “◯ (open circle)” shows that a given state shown in FIG. 6 was observed; —: “-” shows that the given state shown in FIG. 6 was not observed
Conditions: for State of lipid droplet in cell contained in outermost layer of sebaceous gland FIG. 6(A): (A) No lipid droplet is found in the cell; for State of lipid droplet in cell contained in outermost layer of sebaceous gland FIG. 6(B): (B) A few lipid droplets are found in the cell; for State of lipid droplet in cell contained in outermost layer of sebaceous gland FIG. 6(C): (C) There is a space of lipid droplets in the cell; for State of lipid droplet in cell contained in outermost layer of sebaceous gland FIG. 6(D): (D) Lipid droplets start erosion of the nucleus; for State of lipid droplet in cell contained in outermost layer of sebaceous gland FIG. 6(E): (E) Lipid droplets start being connected to each other; for State of lipid droplet in cell contained in outermost layer of sebaceous gland FIG. 6(F): (F) The cell is fully occupied by lipid droplets; for State of lipid droplet in cell contained in outermost layer of sebaceous gland FIG. 6(G): (G) The cell is disappeared
Description: Under a stereoscopic microscope, a subcutaneous tissue was removed from a skin tissue by using scissors. Next, collagenous fibers were removed from the dermis in the skin tissue by using scissors and tweezers after removing the subcutaneous tissue, to obtain a sebaceous-gland-structure in which a sebaceous gland was exposed (hereinafter referred to as “sebaceous-gland-structure A”). […] In the sebaceous-gland-structure A, a sebaceous gland was exposed.
The sebaceous-gland-structure A obtained in Preparation Example 6 was immersed in a 4% by mass PFA-containing PBS solution at 4° C. for 30 minutes to fix the sebaceous-gland-structure A, thereby giving a fixed sample. The resulting fixed sample was washed by incubating the sample in a 2% by mass BSA-containing PBSTT solution at 4° C. for 1 hour. Washing was carried out three times.
The fixed sample after the washing was incubated in the primary antibody-containing solution obtained in Preparation Example 2 at 4° C. for 24 hours. The fixed sample after the incubation was washed by incubating the fixed sample in a […] by mass BSA-containing PBSTT solution at 4° C. for 1 hour. Washing was carried out three times.
The fixed sample after the washing was incubated in the staining reagent A obtained in Preparation Example 3 at 4° C. for 12 hours, to stain the sebaceous gland basal cell and the nucleus present in the outermost layer of the sebaceous gland. The stained fixed sample was washed by incubating the sample in a 2% by mass BSA-containing PBSTT solution at 4° C. for 1 hour. Washing was carried out three times.
The fixed sample after the washing was incubated in the staining reagent B obtained in Preparation Example 4 at room temperature (25° C.) for 30 minutes, to stain the sebum contained in the sebaceous-gland-structure A. The stained fixed sample was washed by incubating the sample in a 2% by mass BSA-containing PBSTT solution at 4° C. for 1 hour. Washing was carried out three times.
The fixed sample after the washing was subjected to incubation in a 20% by mass glycerol-containing PBS solution at 4° C. for 1 hour, incubation in a 50% by mass glycerol-containing PBS solution at 4° C. for 1 hour, and incubation in a 80% by mass glycerol-containing PBS solution at 4° C. for 1 hour, to substitute the moisture contained in the fixed sample with glycerol.
An appropriate amount (for example, 50 μL) of an 80 by mass aqueous glycerol solution was added to a region surrounded by the spaced contained in the spacer-attached coverslip obtained in Preparation Example 5. Next, the glycerol-substituted sebaceous-gland-structure A was placed on the region surrounded by the spacer contained in the spacer-attached coverslip so that the side of the sebaceous gland was directed downwards. Thereafter, the region surrounded by the spacer contained in the spacer-attached coverslip was covered with a round-shaped coverslip (diameter: 12 mm), to obtain an observation sample.
Linoleic acid was added to the mixed medium obtained in Preparation Example 1 (hereinafter also referred to as “test sample A”) so that the concentration of linoleic acid was 1×10^−4 M, to obtain a test sample B. In addition, linoleic acid was added to the mixed medium obtained in Preparation Example 1 so that the concentration of linoleic acid was 1×10^−3 M, to obtain a test sample C.
One milliliter of the test sample A was added to each well of a 24-well plate. Next, the sebaceous-gland-structure A obtained in Preparation Example 6 was cultured in a suspended state in the test sample A contained in each well of the 24-well plate in the presence of 5% by volume carbon dioxide at 37° C. for 24 hours, to contact the sebaceous-gland-structure A with the test sample A (Experiment number 1). In addition, the sebaceous-gland-structure A was contacted with the test sample A in the same manner as in Experiment number 1 except that in Experiment number 1, 48-hour culture was carried out in place of 24-hour culture (Experiment number 2). […]

[1] = linoleic acid 1 × 10^−3 M, culture 24 h (Experiment 5)
[2] = linoleic acid 1 × 10^−3 M, culture 48 h (Experiment 6)
[3] = linoleic acid 1 × 10^−4 M, culture 24 h (Experiment 3)
[4] = linoleic acid 1 × 10^−4 M, culture 48 h (Experiment 4)

## CCCCC/C=C\C/C=C\CCCCCCCC(=O)O [linoleic acid, Linoleic acid]
[1]
  State of lipid droplet in cell contained in outermost layer of sebaceous gland FIG. 6(A): ◯
  State of lipid droplet in cell contained in outermost layer of sebaceous gland FIG. 6(B): ◯
  State of lipid droplet in cell contained in outermost layer of sebaceous gland FIG. 6(C): ◯
  State of lipid droplet in cell contained in outermost layer of sebaceous gland FIG. 6(D): ◯
  State of lipid droplet in cell contained in outermost layer of sebaceous gland FIG. 6(E): ◯
  State of lipid droplet in cell contained in outermost layer of sebaceous gland FIG. 6(F): —
  State of lipid droplet in cell contained in outermost layer of sebaceous gland FIG. 6(G): ◯
[2]
  State of lipid droplet in cell contained in outermost layer of sebaceous gland FIG. 6(A): ◯
  State of lipid droplet in cell contained in outermost layer of sebaceous gland FIG. 6(B): ◯
  State of lipid droplet in cell contained in outermost layer of sebaceous gland FIG. 6(C): ◯
  State of lipid droplet in cell contained in outermost layer of sebaceous gland FIG. 6(D): ◯
  State of lipid droplet in cell contained in outermost layer of sebaceous gland FIG. 6(E): ◯
  State of lipid droplet in cell contained in outermost layer of sebaceous gland FIG. 6(F): ◯
  State of lipid droplet in cell contained in outermost layer of sebaceous gland FIG. 6(G): ◯
Linoleic acid 1×10^−4 M and 1×10^−3 M, culture 24 h and 48 h
  number of cells progressing sebum production (tendency from Table 2): the higher the linoleic acid concentration in the test sample is and the longer the culture time is, the larger the number of cells progressing sebum production is
[3]
  State of lipid droplet in cell contained in outermost layer of sebaceous gland FIG. 6(A): ◯
  State of lipid droplet in cell contained in outermost layer of sebaceous gland FIG. 6(B): ◯
  State of lipid droplet in cell contained in outermost layer of sebaceous gland FIG. 6(C): —
  State of lipid droplet in cell contained in outermost layer of sebaceous gland FIG. 6(D): —
  State of lipid droplet in cell contained in outermost layer of sebaceous gland FIG. 6(E): —
  State of lipid droplet in cell contained in outermost layer of sebaceous gland FIG. 6(F): —
  State of lipid droplet in cell contained in outermost layer of sebaceous gland FIG. 6(G): —
[4]
  State of lipid droplet in cell contained in outermost layer of sebaceous gland FIG. 6(A): ◯
  State of lipid droplet in cell contained in outermost layer of sebaceous gland FIG. 6(B): ◯
  State of lipid droplet in cell contained in outermost layer of sebaceous gland FIG. 6(C): ◯
  State of lipid droplet in cell contained in outermost layer of sebaceous gland FIG. 6(D): —
  State of lipid droplet in cell contained in outermost layer of sebaceous gland FIG. 6(E): —
  State of lipid droplet in cell contained in outermost layer of sebaceous gland FIG. 6(F): —
  State of lipid droplet in cell contained in outermost layer of sebaceous gland FIG. 6(G): —
